The text below walks through data of US11058745B1, “Stable liquid pharmaceutical compositions of daptomycin” (JNF LLC., priority 2018, dated 2021).

A short description of this data set: Chemical stability of daptomycin formulations on storage (daptomycin peak purity, anhydrodaptomycin impurity). It counts as physicochemical. As to conditions: with only propylene glycol, 2-8° C. The method, then: For purposes of the present invention, “stable” or “substantially stable” with respect to liquid daptomycin compositions shall be understood to mean compositions having less than about 5% anhydrodaptomycin impurity compared to a reference standard and/or having a peak purity of at least about 95% after 1 month at room temperature or 12 months at refrigerated temperatures of from about 2 to about 8° C. Impurity and peak purity calculated based on integration of major impurity anhydrodaptomycin and daptomycin peaks only and minor impurities not accounted for calculations.
Note: Impurities presented here represent increase compared to standard injections. The peak at RRT of about 1.12 (Anhydrodaptomycin) is major impurity that increases over the time. The same impurity is also present in standard injections to the extent of 0.6 to 0.8%. Here onwards, impurity means it is Anhydrodaptomycin and peak purity refers to area percentage of Daptomycin, when only two peaks are integrated, Daptomycin and Anhydrodaptomycin.
Note: Impurities presented here represent increase compared to standard injections. The peak at RRT 1.12 (Anhydrodaptomycin) is major impurity that increases over the time. The same impurity is also present in standard injections to the extent of 0.6 to 0.8%.

As for `CCCCCCCCCC(=O)N[C@@H](Cc1c[nH]c2ccccc12)C(=O)N[C@H](CC(N)=O)C(=O)N[C@@H](CC(=O)O)C(=O)N[C@@H]1C(=O)NCC(=O)N[C@@H](CCCN)C(=O)N[C@@H](CC(=O)O)C(=O)N[C@H](C)C(=O)N[C@@H](CC(=O)O)C(=O)NCC(=O)N[C@H](CO)C(=O)N[C@@H]([C@H](C)CC(=O)O)C(=O)N[C@@H](CC(=O)c2ccccc2N)C(=O)O[C@@H]1C` [Daptomycin], the “stable up to (time)” value is listed as “up to 1 month”.
